Paper PMC6958329, “New ^55Co-labeled Albumin-Binding Folate Derivatives as Potential PET Agents for Folate Receptor Imaging” (Pharmaceuticals, 2019)
Values joined by “and” are separate entries in the source; they are usually repeats but may differ in a detail not shown here. Equal entries are not always repeated. Values belong to the molecule of their own block, whether it stands above or below them.

System: KB tumor bearing mice
Experiment: In vivo biodistribution in KB tumor bearing mice
Conditions: for Biodistribution, Tumor: KB tumor; for Biodistribution, Tumor / Biodistribution, Blood / Biodistribution, Bone / Biodistribution, Brain / Biodistribution, Fat / Biodistribution, Heart / Biodistribution, Intestine / Biodistribution, Kidney / Biodistribution, Liver / Biodistribution, Lungs / Biodistribution, Muscle / Biodistribution, Pancreas / Biodistribution, Skin / Biodistribution, Spleen / Biodistribution, Stomach: n = 4
Method: The in vivo behavior of each ^55Co-labeled folate was evaluated in KB-tumor bearing mice via biodistribution studies and PET/CT imaging. The biodistribution data are presented in Table 3 and Table 4, and are reported as the percent of injected activity per gram of tissue (% IA/g). Statistically significant differences in renal uptake between the two ^55Co-labeled compounds were observed. At 4 h post-injection, the radiofolates had uptake values in the kidneys of 36% ± 7% IA/g for [^55Co]Co-cm10 and 53% ± 12% IA/g for [^55Co]Co-rf42. […] Lower renal uptake for [^55Co]Co-cm10 may in part be due to slightly higher lipophilicity (supported by its larger molecular weight and a longer HPLC-retention time) in comparison to [^55Co]Co-rf42. […] Despite the differences in blood retention, tumor uptake for both radiofolates was similar with values of 17% ± 2% IA/g for [^55Co]Co-cm10 and 17% ± 4% IA/g for [^55Co]Co-rf42 at 4 h post-injection. […] The PET/CT images (presented as maximal intensity projections) confirm the biodistribution findings, highlighting the kidneys and tumors as the tissues with the highest activity uptake (Figure 5).
All animal studies were performed using a protocol approved by the Institutional Animal Care and Use Committee at the University of Alabama at Birmingham and were in compliance with national animal welfare policies and guidelines. Female athymic nude mice (Charles River, Wilmington, MA, USA), age 5 weeks, were implanted with KB cells via subcutaneous injection of 5 × 10^6 cells in 100 μL of PBS in the right shoulder. Tumors were allowed to grow for 12 days, during which time mice were fed Teklad Folic Acid Deficient Diet (Envigo, Huntingdon, United Kingdom).
Biodistribution and imaging studies for [^55Co]Co-cm10 and [^55Co]Co-rf42 were performed at 4 h and 24 h post-injection on groups of four mice. An additional cohort of mice was co-injected with a blocking dose of folic acid (100 μg), and biodistribution was performed at 4 h post-injection. At 2 h, mice were induced using 3% isoflurane and a 50 μL blood sample was taken retro-orbitally to monitor blood activity at an early time point.
The radiofolates were prepared as described with final molar activities of 835.5 MBq/μmol (22.6 mCi/μmol) for [^55Co]Co-cm10 and 957.6 MBq/μmol (25.9 mCi/μmol) for [^55Co]Co-rf42 in 60 μL reaction volume. Injections (100 µL) were prepared by dilution of the radiofolates in sterile saline (pH = 7). The final [^55Co]Co-cm10 injection contained 1,924 kBq (52 μCi) and 2.3 nmol cm10 and the final [^55Co]Co-rf42 injection contained 2,479 kBq […] and 2.4 nmol rf42. Blocking doses contained an additional 100 µg of folic acid and were prepared by diluting the radiofolates with 1 μg/μL folic acid in sterile saline (pH adjusted to 7). Mice were euthanized humanely by cervical dislocation following anaesthetization with 3% isoflurane, and their organs were collected, weighed and counted using an automatic gamma counter.

[1] = 4 h, co-administration of 100 µg folic acid blocking dose

Biodistribution, Tumor [1]: 8 ± 4 % IA/g
Biodistribution, Blood [1]: 17 ± 3 % IA/g
Biodistribution, Bone [1]: 2.2 ± 0.8 % IA/g
Biodistribution, Brain [1]: 0.6 ± 0.2 % IA/g
Biodistribution, Fat [1]: 4 ± 1 % IA/g
Biodistribution, Heart [1]: 4.2 ± 0.7 % IA/g
Biodistribution, Intestine [1]: 2.3 ± 0.4 % IA/g
Biodistribution, Kidney [1]: 16 ± 4 % IA/g
Biodistribution, Liver [1]: 3.5 ± 0.5 % IA/g
Biodistribution, Lungs [1]: 7 ± 3 % IA/g
Biodistribution, Muscle [1]: 2.1 ± 0.7 % IA/g
Biodistribution, Pancreas [1]: 2.4 ± 0.7 % IA/g
Biodistribution, Skin [1]: 5 ± 1 % IA/g
Biodistribution, Spleen [1]: 2.2 ± 0.4 % IA/g
Biodistribution, Stomach [1]: 1.5 ± 0.1 % IA/g
Biodistribution, Blood (4 h post-injection): 14 % IA/g and 13.8 ± 0.8 % IA/g
Biodistribution, Bone (4 h post-injection): 1.8 ± 0.6 % IA/g
Biodistribution, Brain (4 h post-injection): 0.8 ± 0.1 % IA/g
Biodistribution, Fat (4 h post-injection): 5 ± 1 % IA/g
Biodistribution, Heart (4 h post-injection): 4.7 ± 0.6 % IA/g
Biodistribution, Intestine (4 h post-injection): 1.9 ± 0.3 % IA/g
Biodistribution, Liver (4 h post-injection): 3.7 ± 0.6 % IA/g
Biodistribution, Lungs (4 h post-injection): 5.4 ± 0.6 % IA/g
Biodistribution, Muscle (4 h post-injection): 2.4 ± 0.9 % IA/g
Biodistribution, Pancreas (4 h post-injection): 2.4 ± 0.7 % IA/g
Biodistribution, Skin (4 h post-injection): 6 ± 2 % IA/g
Biodistribution, Spleen (4 h post-injection): 2.0 ± 0.4 % IA/g
Biodistribution, Stomach (4 h post-injection): 0.8 ± 0.2 % IA/g
Biodistribution, Blood (24 h post-injection): 2.6 ± 0.3 % IA/g
Biodistribution, Bone (24 h post-injection): 0.8 ± 0.2 % IA/g
Biodistribution, Brain (24 h post-injection): 0.45 ± 0.08 % IA/g
Biodistribution, Fat (24 h post-injection): 3 ± 2 % IA/g
Biodistribution, Heart (24 h post-injection): 1.7 ± 0.2 % IA/g
Biodistribution, Intestine (24 h post-injection): 0.92 ± 0.08 % IA/g
Biodistribution, Kidney (24 h post-injection): 30 ± 2 % IA/g
Biodistribution, Liver (24 h post-injection): 1.9 ± 0.3 % IA/g
Biodistribution, Lungs (24 h post-injection): 1.9 ± 0.3 % IA/g
Biodistribution, Muscle (24 h post-injection): 1.3 ± 0.3 % IA/g
Biodistribution, Pancreas (24 h post-injection): 1.4 ± 0.2 % IA/g
Biodistribution, Skin (24 h post-injection): 7 ± 3 % IA/g
Biodistribution, Spleen (24 h post-injection): 1.0 ± 0.1 % IA/g
Biodistribution, Stomach (24 h post-injection): 0.34 ± 0.09 % IA/g
SMILES: Nc1nc2ncc(CNc3ccc(C(=O)N[C@@H](CCC(=O)NC(CCCCNC(=O)CN4CCN(CC(=O)O)CCN(CC(=O)O)CCN(CC(=O)O)CC4)C(=O)NC(CCCCNC(=O)CCCc4ccc(I)cc4)C(=O)O)C(=O)O)cc3)nc2c(=O)[nH]1.[55Co] (stereo partly shown) [[^55Co]Co-cm10]

Biodistribution, Tumor [1]: 7 ± 2 % IA/g
Biodistribution, Blood [1]: 15 ± 2 % IA/g
Biodistribution, Bone [1]: 1.7 ± 0.5 % IA/g
Biodistribution, Brain [1]: 0.5 ± 0.1 % IA/g
Biodistribution, Fat [1]: 2.7 ± 0.6 % IA/g
Biodistribution, Heart [1]: 4 ± 1 % IA/g
Biodistribution, Intestine [1]: 2.2 ± 0.3 % IA/g
Biodistribution, Kidney [1]: 12 ± 4 % IA/g
Biodistribution, Liver [1]: 4 ± 1 % IA/g
Biodistribution, Lungs [1]: 5.6 ± 0.3 % IA/g
Biodistribution, Muscle [1]: 1.5 ± 0.3 % IA/g
Biodistribution, Pancreas [1]: 2.2 ± 0.2 % IA/g
Biodistribution, Skin [1]: 3.5 ± 0.8 % IA/g
Biodistribution, Spleen [1]: 2.1 ± 0.3 % IA/g
Biodistribution, Stomach [1]: 1.1 ± 0.5 % IA/g
Biodistribution, Blood (4 h post-injection): 8 % IA/g and 8 ± 3 % IA/g
Biodistribution, Bone (4 h post-injection): 1.3 ± 0.2 % IA/g
Biodistribution, Brain (4 h post-injection): 0.7 ± 0.1 % IA/g
Biodistribution, Fat (4 h post-injection): 3.2 ± 0.9 % IA/g
Biodistribution, Heart (4 h post-injection): 2.9 ± 0.4 % IA/g
Biodistribution, Intestine (4 h post-injection): 2.2 ± 0.5 % IA/g
Biodistribution, Liver (4 h post-injection): 3.8 ± 0.6 % IA/g
Biodistribution, Lungs (4 h post-injection): 4 ± 1 % IA/g
Biodistribution, Muscle (4 h post-injection): 1.6 ± 0.4 % IA/g
Biodistribution, Pancreas (4 h post-injection): 2.4 ± 0.5 % IA/g
Biodistribution, Skin (4 h post-injection): 8 ± 1 % IA/g
Biodistribution, Spleen (4 h post-injection): 1.5 ± 0.3 % IA/g
Biodistribution, Stomach (4 h post-injection): 0.8 ± 0.4 % IA/g
Biodistribution, Blood (24 h post-injection): 1.0 ± 0.4 % IA/g
Biodistribution, Bone (24 h post-injection): 0.6 ± 0.2 % IA/g
Biodistribution, Brain (24 h post-injection): 0.4 ± 0.1 % IA/g
Biodistribution, Fat (24 h post-injection): 2.7 ± 0.2 % IA/g
Biodistribution, Heart (24 h post-injection): 2.0 ± 0.4 % IA/g
Biodistribution, Intestine (24 h post-injection): 0.8 ± 0.2 % IA/g
Biodistribution, Kidney (24 h post-injection): 46 ± 14 % IA/g
Biodistribution, Liver (24 h post-injection): 2.9 ± 0.5 % IA/g
Biodistribution, Lungs (24 h post-injection): 1.5 ± 0.4 % IA/g
Biodistribution, Muscle (24 h post-injection): 1.2 ± 0.6 % IA/g
Biodistribution, Pancreas (24 h post-injection): 1.9 ± 0.3 % IA/g
Biodistribution, Skin (24 h post-injection): 6 ± 2 % IA/g
Biodistribution, Spleen (24 h post-injection): 0.6 ± 0.2 % IA/g
Biodistribution, Stomach (24 h post-injection): 0.5 ± 0.2 % IA/g
tumor-to-kidney ratio (compared with [^64Cu]Cu-rf42 and [^68Ga]Ga-rf42, Figure 6): lowest
SMILES: Nc1nc2ncc(CNc3ccc(C(=O)N[C@@H](CCC(=O)NC(CCCCNC(=O)CCC(C(=O)O)N4CCN(CC(=O)O)CCN(CC(=O)O)CC4)C(=O)NC(CCCCNC(=O)CCCc4ccc(I)cc4)C(=O)O)C(=O)O)cc3)nc2c(=O)[nH]1.[55Co] (stereo partly shown) [[^55Co]Co-rf42]
